MIC and solubility in water data for ten compounds are collected here from patent US5059597A, “7-(4-oxa or 4-thia-2,7-diazabicyclo[3.3.0]oct-2-en-3-yl)-3-quinolone-and-naphthyrido ne-carboxylic acid derivatives as antibacterial agents and feed additives” (Bayer Aktiengesellschaft, priority 1988, dated 1991).

Series [1] deals with Staphylococcus aureus 133. The series is described as follows: MIC, agar dilution test (Denley multipoint inoculator; Iso-sensitest agar). The class given is cell-based. As to conditions: read-out: MIC values. On the procedure: (§1) The minimum inhibitory concentrations (MIC) were determined by the series dilution method on Iso-Sensitest agar (Oxoid). For each test substance, a series of agar plates which contained concentrations of the active compound which decreased by a dilution factor of two each time was prepared. The agar plates were inoculated with a multipoint inoculator (Denley). Overnight cultures of the pathogens which had first been diluted so that each inoculation point contained about 10^4 colony-forming particles were used for the inoculation. The inoculated agar plates were incubated at 37° C. and the germ growth was read off after about 20 hours. The MIC value (μg/ml) indicates the lowest active compound concentration at which no germ growth was to be detected with the naked eye.
(§2) The MIC values of some of the compounds according to the invention are shown in comparison with ciprofloxacin in the following table.
(§3) MIC values (mg/l) determined by the agar dilution
(§4) test (Denley multipoint inoculator; Iso-sensitest agar)
(In general: Agar dilution tests growth on a series of plates holding different concentrations.)

The subject of series [2] is Enterococcus faecalis 27101. The description is as above. The class given is cell-based. As to conditions: read-out: MIC values. As for the experimental part: as §1, §2, §3, §4
Series [3] has as its system Staphylococcus aureus 1756. The series is described as above. As to conditions: read-out: MIC values. The class given is cell-based. As for the experimental part: as §1, §2, §3, §4
Series [4] has as its system Staphylococcus aureus FK 422. The series is described as above. The class given is cell-based. Conditions: read-out: MIC values. As for the experimental part:
as §1, §2, §3, §4

A further series has as its system Proleus vulgaris 1017. Described as above. The class given is cell-based. As to conditions: 37° C., about 20 hours, about 10^4 colony-forming particles. As for the experimental part:
as §1, §2, §3, §4

The next series deals with Escherichia coli Neumann. Described as above. The class given is cell-based. As to conditions: 37° C., about 20 hours, about 10^4 colony-forming particles. On the procedure:
as §1, §2, §3, §4

A further series has as its system Proleus mirabilis 8223. The series is described as above. The series is classed as cell-based. Conditions: 37° C., about 20 hours, about 10^4 colony-forming particles. As for the experimental part:
as §1, §2, §3, §4

The subject of series [5] is Enterococcus faecalis 9790. The description is as above. The series is classed as cell-based. As to conditions: read-out: MIC values. On the procedure:
as §1, §2, §3, §4

The next series has as its system Morganella morganii 932. Described as above. The series is classed as cell-based. Conditions: 37° C., about 20 hours, about 10^4 colony-forming particles. As for the experimental part:
as §1, §2, §3, §4

Series [6] has as its system Providencia stuartei 12052. Described as above. The series is classed as cell-based. As to conditions: 37° C., about 20 hours, about 10^4 colony-forming particles. As for the experimental part:
as §1, §2, §3, §4

The nature of the next series: Solubility in water. As to conditions: mesylate salt. The class given is physicochemical.
The mark [7] stands for this setting: Staphylococcus aureus 133, 37° C., about 20 hours, about 10^4 colony-forming particles.
The mark [8] stands for this setting: Enterococcus faecalis 27101, 37° C., about 20 hours, about 10^4 colony-forming particles.
Where [9] appears, read: Staphylococcus aureus 1756, 37° C., about 20 hours, about 10^4 colony-forming particles.
The mark [10] stands for this setting: FK422, Staphylococcus aureus FK 422, 37° C., about 20 hours, about 10^4 colony-forming particles.
The mark [11] stands for this setting: Enterococcus faecalis 9790, 37° C., about 20 hours, about 10^4 colony-forming particles.

≈ marks a conversion by molar mass, not a printed value. Like-named read-outs stand apart in the source and are kept apart here. Where only a bound is given, the exact number is not on record here.

In general, MIC refers to the least concentration at which growth counts as inhibited. Regarding `CO[C@H]1CN(c2c(F)cc3c(=O)c(C(=O)O)cn(C4CC4)c3c2Cl)C[C@H]1N.O=C(O)C(F)(F)F` (relative stereo) [Example 4, 7-(cis-3-amino-4-methoxy-1-pyrrolidinyl)-8-chloro-1-cyclopropyl-6-fluoro-1,4-dihydro-4-oxo-3-quinolinecarboxylic acid trifluoroacetate], the minimum inhibitory concentration (MIC) in series [1] (setting [7]) was at most 0.015 µg/mL; in series [2] (setting [8]), 0.06 µg/mL; in [3] (setting [9]), at most 0.015 µg/mL; in series [4] (setting [10]), at most 0.016 µg/mL; in the series with Proleus vulgaris 1017 it was at most 0.015 µg/mL; in the series on Escherichia coli Neumann it was at most 0.015 µg/mL. The MIC in the series on Proleus mirabilis 8223 was 0.5 µg/mL; in series [5] (setting [11]), 0.06 µg/mL; in the series on Morganella morganii 932 it was at most 0.015 µg/mL; in series [6], 0.5 µg/mL.
For the compound `CN1CCOC2CN(c3cc4c(cc3F)c(=O)c(C(=O)O)cn4C3CC3)CC21` (stereo not shown) [Example 10, 1-cyclopropyl-6-fluoro-1,4-dihydro-7-(5-methyl-2-oxa-5,8-diazabicyclo[4.3.0]non-8-yl)-4-oxo-3-quinolinecarboxylic acid], the MIC in [1] (setting [7]) stood at 0.125 µg/mL (≈ 0.323 µM); in [2] (setting [8]), 2 µg/mL (≈ 5.16 µM); in [3] (setting [9]), 0.125 µg/mL (≈ 0.323 µM); in series [4] (setting [10]), 0.125 µg/mL (≈ 0.323 µM); in the series with Proleus vulgaris 1017 it was 1 µg/mL (≈ 2.58 µM); against Escherichia coli Neumann it was 0.125 µg/mL (≈ 0.323 µM). The MIC against Proleus mirabilis 8223 came to 16 µg/mL (≈ 41.3 µM); in series [5] (setting [11]), 2 µg/mL (≈ 5.16 µM); against Morganella morganii 932, 0.5 µg/mL (≈ 1.29 µM); in [6] it was 64 µg/mL (≈ 165 µM).
As to `CO[C@H]1CN(c2cc3c(cc2F)c(=O)c(C(=O)O)cn3C2CC2)C[C@H]1N.Cl` (relative stereo) [Example 5, 7-(cis-3-Amino-4-methoxy-1-pyrrolidinyl)-1-cyclopropyl-6-fluoro-1,4-dihydro-4-oxo-3-quinolinecarboxylic acid hydrochloride], the minimum inhibitory concentration (MIC) is 0.125 µg/mL in series [1] (setting [7]); 0.25 µg/mL in [2] (setting [8]); 0.125 µg/mL in [3] (setting [9]); 0.125 µg/mL in series [4] (setting [10]); 0.03 µg/mL in the series on Proleus vulgaris 1017; at most 0.015 µg/mL in the series on Escherichia coli Neumann. The MIC was 2 µg/mL against Proleus mirabilis 8223, 0.25 µg/mL in [5] (setting [11]), at most 0.015 µg/mL against Morganella morganii 932 and 4 µg/mL in [6].
On to `O=C(O)c1cn(C2CC2)c2cc(N3CCNCC3)c(F)cc2c1=O` [Ciprofloxacin, ciprofloxacin, reference compound], for which the MIC in [1] (Staphylococcus aureus, 133, 20 h) was 0.25 µg/mL (≈ 0.754 µM); in series [2] (Enterococcus faecalis, 27101, 20 h), 0.05 µg/mL (≈ 0.151 µM); in [3] (Staphylococcus aureus, 1756, 20 h) it was 0.25 µg/mL (≈ 0.754 µM); in [4] (Staphylococcus aureus, FK422, 20 h) it was 0.25 µg/mL (≈ 0.754 µM); in the series with Proleus vulgaris 1017 it was at most 0.015 µg/mL; against Escherichia coli Neumann, at most 0.015 µg/mL. Besides, the MIC with Proleus mirabilis 8223 is 1 µg/mL (≈ 3.02 µM); in series [5] (Enterococcus faecalis, 9790, 20 h) it was 0.25 µg/mL (≈ 0.754 µM); in the series with Morganella morganii 932, at most 0.015 µg/mL; in series [6], 4 µg/mL (≈ 12.1 µM).
In the case of `CN1CCOC2CN(c3c(F)cc4c(=O)c(C(=O)O)cn(C5CC5)c4c3F)CC21` (stereo not shown) [Example 9, 1-cyclopropyl-6,8-difluoro-1,4-dihydro-7-(5-methyl-2-oxa-5,8-diazabicyclo[4.3.0]non-8-yl)-4-oxo-3-quinolinecarboxylic acid], the MIC in series [1] (setting [7]) was 0.06 µg/mL (≈ 0.148 µM); in series [2] (setting [8]) it was 0.25 µg/mL (≈ 0.617 µM); in [3] (setting [9]), 0.06 µg/mL (≈ 0.148 µM); in [4] (setting [10]), 0.06 µg/mL (≈ 0.148 µM); in the series on Proleus vulgaris 1017, 0.5 µg/mL (≈ 1.23 µM); against Escherichia coli Neumann it was 0.25 µg/mL (≈ 0.617 µM). Also, the minimum inhibitory concentration (MIC) in the series with Proleus mirabilis 8223 came to 8 µg/mL (≈ 19.7 µM); in [5] (setting [11]), 0.25 µg/mL (≈ 0.617 µM); in the series with Morganella morganii 932 it was 0.5 µg/mL (≈ 1.23 µM); in [6] it was 32 µg/mL (≈ 78.9 µM).
`CS(=O)(=O)O.O=C(O)c1cn(C2CC2)c2c(F)c(N3CC4CCCNC4C3)c(F)cc2c1=O` (stereo not shown) [Example 43A, 1-cyclopropyl-7-(2,8-diazabicyclo[4.3.0]non-8-yl)-6,8-difluoro-1,4-dihydro-4-oxo-3-quinolinecarboxylic acid mesylate]: in “Solubility in water”, the solubility in water result is reported as “readily soluble in water”.
Take `CO[C@@H]1CN(c2c(F)cc3c(=O)c(C(=O)O)cn(C4CC4)c3c2F)C[C@H]1N.Cl` (relative stereo) [Example 1, 7-(trans-3-amino-4-methoxy-1-pyrrolidinyl)-1-cyclopropyl-6,8-difluoro-4-oxo-3-quinolinecarboxylic acid hydrochloride]: the MIC was 0.06 µg/mL in series [1] (setting [7]); 0.125 µg/mL in [2] (setting [8]); 0.06 µg/mL in series [3] (setting [9]); 0.06 µg/mL in series [4] (setting [10]); at most 0.015 µg/mL against Proleus vulgaris 1017; at most 0.015 µg/mL in the series on Escherichia coli Neumann. Moreover, the MIC was 1 µg/mL in the series with Proleus mirabilis 8223, 0.125 µg/mL in series [5] (setting [11]), at most 0.015 µg/mL with Morganella morganii 932 and 1 µg/mL in [6].
For `CN1CCC2CN(c3cc4c(cc3F)c(=O)c(C(=O)O)cn4C3CC3)CC21` (stereo not shown) [Example 17, 1-cyclopropyl-6-fluoro-1,4-dihydro-7-(2-methyl-2,7-diazabicyclo[3.3.0]oct-7-yl)-4-oxo-3-quinolinecarboxylic acid], the minimal inhibitory concentration (MIC) in series [1] (setting [7]) came to 0.5 µg/mL (≈ 1.35 µM); in series [2] (setting [8]) it was 1 µg/mL (≈ 2.69 µM); in series [3] (setting [9]), 0.5 µg/mL (≈ 1.35 µM); in series [4] (setting [10]), 0.5 µg/mL (≈ 1.35 µM); against Proleus vulgaris 1017 it was 0.5 µg/mL (≈ 1.35 µM); with Escherichia coli Neumann, 0.125 µg/mL (≈ 0.337 µM). Moreover, the MIC was found to be 8 µg/mL (≈ 21.5 µM) in the series with Proleus mirabilis 8223, 2 µg/mL (≈ 5.38 µM) in series [5] (setting [11]), 0.5 µg/mL (≈ 1.35 µM) with Morganella morganii 932 and 8 µg/mL (≈ 21.5 µM) in series [6].
In the case of `CN1CCCC2CN(c3cc4c(cc3F)c(=O)c(C(=O)O)cn4C3CC3)CC21` (stereo not shown) [Example 14, 1-cyclopropyl-6-fluoro-1,4-dihydro-7-(2-methyl-2,8-diazabicyclo[4.3.0]non-8-yl)-4-oxo-3-quinolinecarboxylic acid], the minimal inhibitory concentration (MIC) in [1] (setting [7]) worked out at 0.25 µg/mL (≈ 0.649 µM); in series [2] (setting [8]) it was 0.25 µg/mL (≈ 0.649 µM); in series [3] (setting [9]), 0.25 µg/mL (≈ 0.649 µM); in [4] (setting [10]), 0.25 µg/mL (≈ 0.649 µM); in the series on Proleus vulgaris 1017, 0.5 µg/mL (≈ 1.3 µM); in the series on Escherichia coli Neumann, 0.06 µg/mL (≈ 0.156 µM). For the same compound, the minimal inhibitory concentration (MIC) in the series on Proleus mirabilis 8223 was 4 µg/mL (≈ 10.4 µM); in series [5] (setting [11]), 0.5 µg/mL (≈ 1.3 µM); in the series with Morganella morganii 932, 0.25 µg/mL (≈ 0.649 µM); in series [6] it was 4 µg/mL (≈ 10.4 µM).
Regarding `CN1CCCC2CN(c3c(F)cc4c(=O)c(C(=O)O)cn(C5CC5)c4c3F)CC21` (stereo not shown) [Example 13, 1-cyclopropyl-6,8-difluoro-1,4-dihydro-7-(2-methyl-2,8-diazabicyclo[4.3.0]non-8-yl)-4-oxo-3-quinolinecarboxylic acid], the minimal inhibitory concentration (MIC) was found to be 0.06 µg/mL (≈ 0.149 µM) in [1] (setting [7]); 0.125 µg/mL (≈ 0.31 µM) in [2] (setting [8]); 0.06 µg/mL (≈ 0.149 µM) in series [3] (setting [9]); 0.06 µg/mL (≈ 0.149 µM) in series [4] (setting [10]); 0.03 µg/mL (≈ 0.0744 µM) against Proleus vulgaris 1017; 0.06 µg/mL (≈ 0.149 µM) against Escherichia coli Neumann. For the same compound, the MIC with Proleus mirabilis 8223 was 1 µg/mL (≈ 2.48 µM); in series [5] (setting [11]) it was 0.25 µg/mL (≈ 0.62 µM); with Morganella morganii 932, 0.125 µg/mL (≈ 0.31 µM); in series [6], 2 µg/mL (≈ 4.96 µM).
